Laboratory results from patent US8492564B2 (priority 2008, dated 2013).
Where two headings read alike, the source gives them in different places.

Experiments:
human KOPR (hKOPR) = human KOPR (hKOPR) (Homo sapiens (Human), UniProt P41145); type: binding
hKOPR = hKOPR (Homo sapiens (Human), UniProt P41145); experiment: biochemical; conditions: for Emax: read-out: Efficacy (Percent of the maximal effect of U50,488H)
Forced swim test (FST) = type: in vivo; conditions: rats
Description: The FST is a two day procedure in which rats swim under conditions in which escape is not possible. On the first day, the rats are forced to swim for 15 minutes. The rats initially search for an escape from the water, but eventually adopt a posture of immobility in which they make only the movements necessary to keep their heads above water. Upon re-testing one day later, latencies to become immobile (an indicator of how rapidly the rats “give up” in response to a familiar stressor) are decreased, which is inferred as despair. Standard antidepressants such as desipramine (DMI) and fluoxetine (FLX) extend latencies to become immobile. Drug efficacy in this animal model is predictive of antidepressant efficacy in humans. The FST has been described by Mague et al., J. Pharmacol. Exp. Ther. 305:323 (2003).

Locomotor activity = type: in vivo; conditions: rats
[1] = Intracranial self-stimulation (ICSS); type: in vivo; conditions: 1.0 mg/kg, IP, rats, 1-hour test sessions

Row | SMILES | Ki (human KOPR (hKOPR)) | Efficacy (Percent of the maximal effect of U50,488H) (hKOPR) | EC50 (hKOPR; read-out: EC50) | Emax (hKOPR) | EC50 (hKOPR) | effect in the forced swim test (Forced swim test (FST)) | effect on locomotor activity (Locomotor activity) | ICSS thresholds [1]
1 | COC(=O)[C@@H]1C[C@H](OC(C)=O)C(=O)[C@H]2[C@@]1(C)CCC1C(=O)O[C@H](C(=O)O)C[C@@]12C (some centres unmarked) [Compound 7] | 0.055 ± 0.023 µM | 99 ± 1% | 0.167 ± 0.035 µM | – | – | – | – | –
2 | COC(=O)[C@@H]1C[C@H](OC(C)=O)C(=O)[C@H]2[C@@]1(C)CC[C@H]1C(=O)O[C@H](C(=O)c3cnccn3)C[C@]21C [Compound 16] | 0.083 ± 0.028 µM | – | 0.195 ± 0.006 µM | 103 ± 3% | – | – | – | –
3 | COC(=O)[C@@H]1C[C@H](OC(C)=O)C(=O)[C@H]2[C@@]1(C)CC[C@H]1C(=O)O[C@H](C(=O)OC(C)C)C[C@]21C [Compound 20] | 0.109 ± 0.012 µM | – | 0.337 ± 0.054 µM | 94 ± 2% | – | – | – | –
4 | C=Cc1occc1[C@@H]1C[C@]2(C)[C@H]3C(=O)[C@@H](OC(C)=O)C[C@@H](C(=O)OC)[C@]3(C)CC[C@H]2C(=O)O1 [Compound 3] | 0.0071 ± 0.0001 µM | – | 0.0046 ± 0.0001 µM | 120 ± 6% | – | – | – | –
5 | CCOC(=O)[C@@H]1C[C@]2(C)[C@H]3C(=O)[C@@H](OC(C)=O)C[C@@H](C(=O)OC)[C@]3(C)CC[C@H]2C(=O)O1 [Compound 19] | 0.196 ± 0.023 µM | – | 0.508 ± 0.008 µM | 94 ± 2% | – | – | – | –
6 | CCOC[C@@H]1C[C@]2(C)[C@H]3C(=O)[C@@H](OC(C)=O)C[C@@H](C(=O)OC)[C@]3(C)CC[C@H]2C(=O)O1 [Compound 10] | 0.497 ± 0.013 µM | – | – | – | > 1 µM | – | – | –
7 | COC[C@@H]1C[C@]2(C)[C@H]3C(=O)[C@@H](OC(C)=O)C[C@@H](C(=O)OC)[C@]3(C)CC[C@H]2C(=O)O1 [Compound 9] | 0.498 ± 0.071 µM | – | 0.33 ± 0.03 µM | 98 ± 2% | – | – | – | –
8 | COC(=O)[C@@H]1C[C@H](OC(C)=O)C(=O)[C@H]2[C@@]1(C)CC[C@H]1C(=O)O[C@H](C(=O)c3cccs3)C[C@]21C [Compound 13] | 0.038 ± 0.01 µM | – | 0.101 ± 0.006 µM | 103 ± 1% | – | – | – | –
9 | COC(=O)[C@@H]1C[C@H](OC(C)=O)C(=O)[C@H]2[C@@]1(C)CC[C@H]1C(=O)O[C@H](c3ccoc3)C[C@]21C [Salvinorin A, salvinorin A] | – | – | – | – | – | depressive-like effects | without affecting locomotor activity | significantly elevated
10 | COC(=O)[C@@H]1C[C@]2(C)[C@H]3C(=O)[C@@H](OC(C)=O)C[C@@H](C(=O)OC)[C@]3(C)CC[C@H]2C(=O)O1 [Compound 18] | 0.154 ± 0.027 µM | – | 0.361 ± 0.025 µM | 99 ± 2% | – | – | – | –
11 | COC(=O)[C@@H]1C[C@H](OC(C)=O)C(=O)[C@H]2[C@@]1(C)CC[C@H]1C(=O)O[C@H](COC(C)=O)C[C@]21C [Compound 11] | 0.555 ± 0.097 µM | – | 0.299 ± 0.013 µM | 113 ± 3% | – | – | – | –
12 | COC(=O)[C@@H]1C[C@H](OC(C)=O)C(=O)[C@H]2[C@@]1(C)CC[C@H]1C(=O)O[C@H](C(O)c3ccco3)C[C@]21C (some centres unmarked) [Compound 17] | 0.02 ± 0.002 µM | – | 0.036 ± 0.005 µM | 114 ± 4% | – | – | – | –
